# Laboratory results from patent US9623028B2, “Methods of treating a cancer using substituted pyrrolopyrimidine compounds, compositions thereof” (Signal Pharmaceuticals, LLC, priority 2014, dated 2017).
# Like-named read-outs stand apart in the source and are kept apart here.
# Tests used:
# [1] = target: CLK2 (Homo sapiens (Human), UniProt P49760); experiment: biochemical; conditions: read-out: CLK2 (% Inh.), % inhibition at 3 μM
# [2] = tested on: breast cancer cell lines; experiment: cells; conditions: for IC50: read-out: Growth Inhibition IC50; for GI50: read-out: Growth inhibition GI50
# [3] = tested on: non small cell lung cancer (NSCLC) cell lines; experiment: cells
# [4] = target: CLK1 (Homo sapiens (Human), UniProt P49759); experiment: biochemical; conditions: read-out: CLK1 (% Inh.), % inhibition at 3 μM
# [5] = Homo sapiens, MDA-MB-175-VII, 96 h
# Chain of CLK1 (P49759 whole entry): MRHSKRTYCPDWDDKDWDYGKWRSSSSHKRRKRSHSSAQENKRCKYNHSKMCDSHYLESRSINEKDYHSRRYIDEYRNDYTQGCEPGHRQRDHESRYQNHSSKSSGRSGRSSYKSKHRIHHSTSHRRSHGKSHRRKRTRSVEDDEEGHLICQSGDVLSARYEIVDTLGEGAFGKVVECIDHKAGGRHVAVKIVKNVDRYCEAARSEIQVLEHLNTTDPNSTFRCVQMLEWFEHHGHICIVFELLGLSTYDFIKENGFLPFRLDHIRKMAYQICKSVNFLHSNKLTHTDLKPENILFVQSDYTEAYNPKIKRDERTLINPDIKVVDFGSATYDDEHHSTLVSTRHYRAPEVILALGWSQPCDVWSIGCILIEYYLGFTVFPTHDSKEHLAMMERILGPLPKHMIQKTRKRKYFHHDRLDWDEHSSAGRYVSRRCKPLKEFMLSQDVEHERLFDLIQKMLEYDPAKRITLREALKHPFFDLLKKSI
# Chain of CLK2 (P49760 whole entry): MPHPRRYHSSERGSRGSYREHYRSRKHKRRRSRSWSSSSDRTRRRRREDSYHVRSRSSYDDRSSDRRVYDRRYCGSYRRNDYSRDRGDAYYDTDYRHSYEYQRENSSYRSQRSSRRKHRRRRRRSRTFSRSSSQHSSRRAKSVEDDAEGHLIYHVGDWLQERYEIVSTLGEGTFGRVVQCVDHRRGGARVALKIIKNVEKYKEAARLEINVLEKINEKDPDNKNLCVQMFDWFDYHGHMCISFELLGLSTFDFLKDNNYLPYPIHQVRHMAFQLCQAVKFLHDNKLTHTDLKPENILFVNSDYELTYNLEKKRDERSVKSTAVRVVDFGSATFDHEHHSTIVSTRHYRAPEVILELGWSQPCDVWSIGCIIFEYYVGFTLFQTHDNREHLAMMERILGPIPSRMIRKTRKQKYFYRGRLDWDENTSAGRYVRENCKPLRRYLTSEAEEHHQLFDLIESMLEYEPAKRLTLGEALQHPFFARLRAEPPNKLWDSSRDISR
compound,measurement,setting,value
"CNC(=O)c1ccc(Nc2nc(OC3CCCC3)c3c(-c4ccc(O)cc4)c[nH]c3n2)c(OC)c1 [Compound 3, 4-((4-(cyclopentyloxy)-5-(4-hydroxyphenyl)-7H-pyrrolo[2,3-d]pyrimidin-2-yl)amino)-3-methoxy-N-methylbenzamide]",inhibition at 3 µM,[1],104%
same,IC50,"[2]; EFM-192A, 96 h",10000 nM
same,GI50,"[2]; EFM-192A, 96 h",10000 nM
same,IC50,"[2]; HCC202, 96 h",16000 nM
same,GI50,"[2]; HCC202, 96 h",15000 nM
same,GI50,"[2]; HCC1500, 96 h",53 nM
same,IC50,"[2]; Homo sapiens, AU565, 96 h",1100 nM
same,GI50,"[2]; Homo sapiens, AU565, 96 h",426 nM
same,IC50,"[2]; Homo sapiens, BT-20, 96 h",608 nM
same,GI50,"[2]; Homo sapiens, BT-20, 96 h",289 nM
same,IC50,"[2]; Homo sapiens, BT-474, 96 h",16300 nM
same,GI50,"[2]; Homo sapiens, BT-474, 96 h",6020 nM
same,IC50,"[2]; Homo sapiens, BT-483, 96 h",10000 nM
same,GI50,"[2]; Homo sapiens, BT-483, 96 h",704 nM
same,IC50,"[2]; Homo sapiens, BT-549, 96 h",180 nM
same,GI50,"[2]; Homo sapiens, BT-549, 96 h",85 nM
same,IC50,"[2]; Homo sapiens, CAL-51, 96 h",9 nM
same,GI50,"[2]; Homo sapiens, CAL-51, 96 h",8 nM
same,IC50,"[2]; Homo sapiens, CAL-85-1, 96 h",76 nM
same,GI50,"[2]; Homo sapiens, CAL-85-1, 96 h",25 nM
same,IC50,"[2]; Homo sapiens, CAL-120, 96 h",10000 nM
same,GI50,"[2]; Homo sapiens, CAL-120, 96 h",10000 nM
same,IC50,"[2]; Homo sapiens, CAMA-1, 96 h",10700 nM
same,GI50,"[2]; Homo sapiens, CAMA-1, 96 h",4900 nM
same,IC50,"[2]; Homo sapiens, DU-4475, 96 h",560 nM
same,GI50,"[2]; Homo sapiens, DU-4475, 96 h",82 nM
same,IC50,"[2]; Homo sapiens, EFM-19, 96 h",730 nM
same,GI50,"[2]; Homo sapiens, EFM-19, 96 h",67 nM
same,IC50,"[2]; Homo sapiens, HCC38, 96 h",47 nM
same,GI50,"[2]; Homo sapiens, HCC38, 96 h",17 nM
same,IC50,"[2]; Homo sapiens, HCC70, 96 h",1950 nM
same,GI50,"[2]; Homo sapiens, HCC70, 96 h",442 nM
same,IC50,"[2]; Homo sapiens, HCC1143, 96 h",17500 nM
same,GI50,"[2]; Homo sapiens, HCC1143, 96 h",286 nM
same,IC50,"[2]; Homo sapiens, HCC1187, 96 h",881 nM
same,GI50,"[2]; Homo sapiens, HCC1187, 96 h",470 nM
same,IC50,"[2]; Homo sapiens, HCC1428, 96 h",4970 nM
same,GI50,"[2]; Homo sapiens, HCC1428, 96 h",1090 nM
same,IC50,"[2]; Homo sapiens, HCC1569, 96 h",5430 nM
same,GI50,"[2]; Homo sapiens, HCC1569, 96 h",73 nM
same,IC50,"[2]; Homo sapiens, HCC1937, 96 h",10000 nM
same,GI50,"[2]; Homo sapiens, HCC1937, 96 h",7460 nM
same,IC50,"[2]; Homo sapiens, HCC1954, 96 h",482 nM
same,GI50,"[2]; Homo sapiens, HCC1954, 96 h",131 nM
same,IC50,"[2]; Homo sapiens, HCC2157, 96 h",120 nM
same,GI50,"[2]; Homo sapiens, HCC2157, 96 h",24 nM
same,IC50,"[2]; Homo sapiens, Hs-578T, 96 h",183 nM
same,GI50,"[2]; Homo sapiens, Hs-578T, 96 h",104 nM
same,IC50,"[2]; Homo sapiens, MCF7, 96 h",170 nM
same,GI50,"[2]; Homo sapiens, MCF7, 96 h",124 nM
same,IC50,"[2]; Homo sapiens, MCF-10A, 96 h",17400 nM
same,GI50,"[2]; Homo sapiens, MCF-10A, 96 h",426 nM
same,IC50,"[2]; Homo sapiens, MCF-12A, 96 h",3150 nM
same,GI50,"[2]; Homo sapiens, MCF-12A, 96 h",486 nM
same,GI50,"[2]; Homo sapiens, MDA-MB-134-VI, 96 h",874 nM
same,IC50,"[2]; Homo sapiens, MDA-MB-157, 96 h",695 nM
same,GI50,"[2]; Homo sapiens, MDA-MB-157, 96 h",225 nM
same,IC50,[2]; [5],8500 nM
same,GI50,[2]; [5],400 nM
same,IC50,"[2]; Homo sapiens, MDA-MB-231, 96 h",38 nM
same,GI50,"[2]; Homo sapiens, MDA-MB-231, 96 h",22 nM
same,IC50,"[2]; Homo sapiens, MDA-MB-361, 96 h",18800 nM
same,GI50,"[2]; Homo sapiens, MDA-MB-361, 96 h",5480 nM
same,IC50,"[2]; Homo sapiens, MDA-MB-415, 96 h",13500 nM
same,GI50,"[2]; Homo sapiens, MDA-MB-415, 96 h",11700 nM
same,IC50,"[2]; Homo sapiens, MDA-MB-436, 96 h",2100 nM
same,GI50,"[2]; Homo sapiens, MDA-MB-436, 96 h",1380 nM
same,IC50,"[2]; Homo sapiens, MDA-MB-453, 96 h",2790 nM
same,GI50,"[2]; Homo sapiens, MDA-MB-453, 96 h",799 nM
same,IC50,"[2]; Homo sapiens, MDA-MB-468, 96 h",32 nM
same,GI50,"[2]; Homo sapiens, MDA-MB-468, 96 h",27 nM
same,IC50,"[2]; Homo sapiens, SK-BR-3, 96 h",3690 nM
same,GI50,"[2]; Homo sapiens, SK-BR-3, 96 h",1180 nM
same,IC50,"[2]; Homo sapiens, T47D, 96 h",418 nM
same,GI50,"[2]; Homo sapiens, T47D, 96 h",162 nM
same,IC50,"[2]; Homo sapiens, UACC-812, 96 h",1790 nM
same,GI50,"[2]; Homo sapiens, UACC-812, 96 h",842 nM
same,IC50,"[2]; Homo sapiens, ZR-75-1, 96 h",6390 nM
same,GI50,"[2]; Homo sapiens, ZR-75-1, 96 h",1140 nM
same,IC50,"[2]; Homo sapiens, ZR-75-30, 96 h",30000 nM
same,GI50,"[2]; Homo sapiens, ZR-75-30, 96 h",11600 nM
same,IC50,"[2]; KPL-1, 96 h",693 nM
same,GI50,"[2]; KPL-1, 96 h",245 nM
same,IC50,"[3]; Homo sapiens, A549, 72 h, read-out: Average IC50 (μM)",0.05 µM
same,IC50,"[3]; Homo sapiens, HOP-62, 72 h, read-out: Average IC50 (μM)",0.05 µM
same,IC50,"[3]; Homo sapiens, HOP-92, 72 h, read-out: Average IC50 (μM)",1.27 µM
same,IC50,"[3]; Homo sapiens, NCI-H441, 72 h, read-out: Average IC50 (μM)",2.1 µM
same,IC50,"[3]; Homo sapiens, NCI-H460, 72 h, read-out: Average IC50 (μM)",0.04 µM
same,IC50,"[3]; Homo sapiens, NCI-H1299, 72 h, read-out: Average IC50 (μM)",0.36 µM
same,IC50,"[3]; Homo sapiens, NCI-H1437, 72 h, read-out: Average IC50 (μM)",0.39 µM
same,IC50,"[3]; Homo sapiens, NCI-H1563, 72 h, read-out: Average IC50 (μM)",1.77 µM
same,IC50,"[3]; Homo sapiens, NCI-H1650, 72 h, read-out: Average IC50 (μM)",0.62 µM
same,IC50,"[3]; Homo sapiens, NCI-H1734, 72 h, read-out: Average IC50 (μM)",0.91 µM
same,IC50,"[3]; Homo sapiens, NCI-H1838, 72 h, read-out: Average IC50 (μM)",16.1 µM
same,IC50,"[3]; Homo sapiens, NCI-H2228, 72 h, read-out: Average IC50 (μM)",1.58 µM
same,IC50,"[3]; Homo sapiens, NCI-H2291, 72 h, read-out: Average IC50 (μM)",16.3 µM
same,IC50,"[3]; Homo sapiens, SK-LU-1, 72 h, read-out: Average IC50 (μM)",0.83 µM
same,IC50,"[3]; Homo sapiens, SW1573, 72 h, read-out: Average IC50 (μM)",0.96 µM
same,IC50,[3]; read-out: growth inhibition IC50 values,≤ 2 µM
same,inhibition at 3 µM,[4],91%
